One data set has as its target T1, 5-HT1A receptor (Homo sapiens, UniProt P08908).
T1 sequence (P08908 1-422): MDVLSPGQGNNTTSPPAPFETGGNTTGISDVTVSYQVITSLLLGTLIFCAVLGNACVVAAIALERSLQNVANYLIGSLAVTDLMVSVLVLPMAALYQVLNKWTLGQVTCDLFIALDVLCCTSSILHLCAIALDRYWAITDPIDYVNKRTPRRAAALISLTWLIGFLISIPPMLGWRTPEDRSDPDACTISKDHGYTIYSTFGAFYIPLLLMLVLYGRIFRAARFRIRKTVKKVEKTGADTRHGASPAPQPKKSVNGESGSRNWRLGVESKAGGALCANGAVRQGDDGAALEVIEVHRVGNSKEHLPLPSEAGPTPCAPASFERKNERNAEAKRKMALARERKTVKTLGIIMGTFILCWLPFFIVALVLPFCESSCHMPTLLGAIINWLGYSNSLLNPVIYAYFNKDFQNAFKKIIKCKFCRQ
The note with it: cited from earlier work.

In the next data set the target is GPR55 (Homo sapiens, UniProt Q9Y2T6). The note with it: cited from earlier work.
GPR55, sequence (Q9Y2T6 whole entry, species assumed): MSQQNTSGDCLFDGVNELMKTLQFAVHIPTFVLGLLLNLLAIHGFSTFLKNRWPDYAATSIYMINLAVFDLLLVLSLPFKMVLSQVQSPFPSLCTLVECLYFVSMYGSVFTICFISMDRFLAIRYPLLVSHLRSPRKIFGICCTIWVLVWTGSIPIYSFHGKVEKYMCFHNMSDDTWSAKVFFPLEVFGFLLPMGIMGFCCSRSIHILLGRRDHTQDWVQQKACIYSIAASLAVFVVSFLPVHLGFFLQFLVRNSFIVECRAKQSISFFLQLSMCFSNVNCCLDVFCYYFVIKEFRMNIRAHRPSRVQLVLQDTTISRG
For the next data set, the system named is CB1 and CB2 receptors. The note with it: comparison of the two receptors; cited from earlier work.
Data set [1] relates to cancer patients suffering from advanced symptoms and/or side effects of chemotherapy. Kind of data set: Inventors' experiments: low dose inhaled THC, at least two hours between doses. The format is in vivo, human. The procedure:
It has been shown by inventors in experiments performed that an inhaled THC dose of 0.2-2 mg may provide sufficient symptom alleviation for a time period of at least 2 hours, at least 3 hours, at least 4 hours, at least 6 hours or intermediate or longer time periods. […] Other examples of symptoms which may be alleviated by prescribing a low dose regimen may include adverse effects of chemotherapy and/or vomiting and/or weight loss and/or insomnia and/or euphoria and/or drowsiness and/or psychomotor effects and/or cognitive effects, and/or agitation and/or depression.
Cancer patients suffering from advanced symptoms and/or side effects of chemotherapy were treated in accordance with the above described regimen, being delivered a dose of between 0.2-2 mg THC at a single delivery event and waiting at least two hours before the next dose. The patients voluntarily reported their conditions.
In a first case, a cancer patient was admitted to hospital for chemotherapy. They were previously prescribed cannabis for pain, vomiting, nausea and weight loss, which they took by smoking cigarettes. […] In the experiment, the patient was prescribed 3×0.5 mg THC per day, delivered using an inhaler device for example as described hereinabove. The first dose was to be taken 30 minutes before chemotherapy. The patient was allowed to take additional inhalations as needed. […] The patient inhaled the 3 prescribed doses only, and no other medication was prescribed or taken. Later, the same patient readmitted to hospital for an additional round of chemotherapy. This time they chose to inhale THC in four 0.5 mg doses, a first dose in the morning before chemotherapy, second and third doses taken concomitantly at midday (amounting to a single 1 mg dose) and a fourth dose in the evening.
In a second case, a cancer patient was admitted to the hospital for severe pain and in order to resume treatment that they chose to terminate earlier. They were previously prescribed cannabis for pain, cachexia and nausea, in addition to other drugs. Throughout the treatment, they received a continuous morphine drip (400-600 mg) with additional morphine treatment upon need. Before being hospitalized, they had not eaten for a week, suffered from sleep deprivation and was depressed. In the hospital they were provided with an inhaler for example as described hereinabove and during the first day of use they inhaled 0.5 mg THC doses 18 times a day, which included 4 previously prescribed doses of 0.5 mg and many demands for additional pain relief. On the next day they reduced the intake to 1 mg inhalations, 4 times a day, continuing for a period of 8 days.

The conditions of data set [2]: cited from earlier work.
For data set [3], the system named is nausea of a patient undergoing chemotherapy. Nature of the data set: FIG. 11: nausea of a chemotherapy patient treated with 0.5 mg inhaled THC doses. The format is in vivo, human. The note with it: first 0.5 mg THC dose 30 minutes before chemotherapy. As to the method: FIG. 11 is a graphical representation of the treatment effect achieved by pulmonary delivery of 0.5 mg THC doses, delivered at time intervals of at least two hours, according to some embodiments of the invention.
In this example, nausea levels of a patient undergoing chemotherapy are shown, as indicated by the arbitrary Y-axis scale. The black line depicts a typical nausea effect that is often witnessed when no special anti-nausea treatment is provided (optionally other than the conventional prophylactic treatment provided normally intravenously in chemotherapy sessions).
Chemotherapy commenced at 7:00 AM, as indicated by the black arrow. […] It may remain high when not treated or even with conventional treatment, although the degree of nausea may fluctuate.
The gray line depicts nausea levels under treatment with 0.5 mg doses of THC, delivered in intervals of at least two hours, indicated by the grey triangles. […] Two additional doses of 0.5 mg THC each, delivered at 12:30 and at 19:00, sufficed to allow the patient to combat the nausea throughout the day.

The test system of the next data set is pain. Kind of data set: FIG. 10: pain treated with 0.5 mg inhaled THC doses at intervals of at least two hours. The format is in vivo, human. The procedure: FIG. 10 is a graphical representation of a regimen for the treatment of pain by pulmonary delivery of 0.5 mg THC doses delivered in time intervals of at least two hours, according to some embodiments of the invention.
In this use over a time period of 16 hours, 4 doses of 0.5 mg THC each were provided at time intervals of at least two hours between sequential doses, indicated by the grey triangles. The black line represents the symptom level, in this case pain, and the grey line represents psychoactive effects.
The x-axis represents the time of day, and the y-axis represents an arbitrary scale for indicating symptom severity and level of psychoactivity. The scale represents, based on user reports, a grade of the symptoms and a grade of the psychoactive effects, for example compared to a baseline report collected from the patient before treatment.

Where [4] appears, read: single inhaled cannabis dose, Syqe Inhaler.

Results on two compounds are retold here after patent publication US12582666B2, “Low dose therapeutic treatment” (Syqe Medical Ltd., priority 2016, dated 2026).

`C=C(C)[C@@H]1CCC(C)=C[C@H]1c1c(O)cc(CCCCC)cc1O` [CBD, Cannabidiol]: the “action at 5-HT1A receptor” value on 5-HT1A receptor was 5-HT1A receptor agonist. The “action at GPR55” value on GPR55 is “antagonist”. The “affinity for the CB1 and CB2 receptors” value in the data set with CB1 and CB2 receptors is “greater affinity for the CB2 receptor than for the CB1 receptor”.
With `CCCCCc1cc(O)c2c(c1)OC(C)(C)[C@@H]1CCC(C)=C[C@@H]21` [THC, Δ9-tetrahydrocannabinol], in data set [1] (cancer patient, 0.5 mg THC 18 times on first day, then 1 mg 4 times a day for 8 days, with morphine drip), the eating result is listed as “ate 3 meals per day”. The mood result in data set [1] (cancer patient, 3×0.5 mg THC per day by inhaler) is recorded as “significantly improved mood”. Moreover, in data set [1] (cancer patient, inhaled THC with morphine drip), the mood result was “significant mood improvement”. For the same compound, in data set [1] (inhaled THC dose of 0.2-2 mg), the “time period of sufficient symptom alleviation” value is recorded as “at least 2 hours”. Besides, the “treatment outcome in additional round of chemotherapy” value in data set [1] (same patient, four 0.5 mg inhaled THC doses) is reported as “effective”. In addition, the “Tmax±SD” value in data set [2] (single 15.1±0.1 mg dose of cannabis inhaled with Syqe Inhaler, eight patients) was 3 ± 1 min. Further, in data set [2] (setting [4]), the “interindividual variability of Cmax” value is 25.3% and the “plasma Cmax increase per mg Δ(9)-THC administered” value was 12.3 ng/mL/mg THC. Further, in data set [3], the “maximum nausea level reached” value is “significant reduction in the maximum level reached” and the onset of nausea entry is reported as “significant delay in the onset of nausea”. Further, the “affinity for the CB1 and CB2 receptors” value in the data set on CB1 and CB2 receptors was “approximately equal affinity for the CB1 and CB2 receptors”. Also, the “time after dose at which pain level begins to rise again” value in the data set with pain (0.5 mg THC inhaled) is “about 2 hours”. In addition, in the data set with pain (0.5 mg THC inhaled at 6:30, arbitrary scale from user reports), the “pain level after first dose” value was “effective to dramatically reduce the pain level”. Besides, in the data set with pain (0.5 mg THC inhaled, arbitrary scale from user reports), the “psychoactivity after first dose” value is reported as “A rise in psychoactivity occurs”.
